According to US6368788B1 (priority 1987, dated 2002):
Marks after values point to notes of the source that are not given here.

Columns and labels:
[1] = system: lymphocytes of lymphoid organs; assay: Immune indices (E-RFC, EA-RFC, EAC-RFC) in healthy guinea pigs; format: in vivo; settings: for E-RFC / EA-RFC / EAC-RFC: healthy guinea pigs, 1 mg/kg im daily 5 days, day 10
Method: Immune parameters were investigated in healthy male guinea pigs ([…]) following administration of test or control agents. Each test and control group consisted of 10 animals. […] Physiological saline was administered im to the animals of the control group. The affects of these treatments were determined on day 10 (i.e., 5 days after the last injection) by preparing cells from peripheral blood (PBL), thymus (TYM), lymph nodes (LN), spleen (SPL), and red pulp of bone marrow (BM). Cells were tested for antibody Fc receptors (EA-RFC), complement receptors (EAC-RFC), T-lymphocytes, “active” T-lymphocytes (E-RFC), B-lymphocytes (EA-RFC and EAC-RFC; according to the method of Bianco, C., et al., J. Exp. Med. 132(4):702-720 (1970). The results of these analyses are shown in TABLES 53-54, below, where data are expressed either as the number of RFC×10^9 per liter of blood, or RFC×10^3 per milligram (mg) of tissue.
Thymus, left paratracheal lymph node, and spleen were surgically removed, weighed, and homogenized in a glass Dounce homogenizer in Medium 199. Tissue fragments were removed by filtration through a chaperon. Bone marrow cell suspensions were prepared by irrigating the bone marrow canal of the pelvis with Medium 199 and homogenizing the irrigated solution. Suspensions from the different respective sources were purified by centrifuging the different cell samples on different aliquots of δ1.077 Ficoll-Urotrast for 40 minutes at 1500-1800 rpm. The lymphocyte interfaces from the gradients were collected into a siliconized test tube and washed in Medium 199. Residual red cells in the lymphocyte suspensions were lysed using 3% acetic acid in the presence of 0.05% Hessian-violet as a viability marker. Cell concentrations were determined microscopically using a Goryaev counting chamber. Cell concentrations were adjusted to 2.5×10^6/mL.
Ram erythrocytes (E) were washed 4× in saline (2000 rpm/10 min.) and suspended at a final concentration of 1% in Medium 199. For determinations of the percentage of E-rosette forming T-lymphocytes (E-RFC) in a sample, 0.1 mL of a prepared lymphocyte suspension (2.5×10^6/ml) was incubated with 0.1 mL of the 1% ram erythrocyte suspension at 37° C. for 10 min., centrifuged at 800-1000 rpm for 5 min., maintained at 4° C. for 2 hrs., and finally resuspended and counted in a Goryaev chamber. Activated T-lymphocytes (i.e., having increased E-RFC capacity) were determined by mixing the test lymphocyte suspension with E, immediately centrifuging for 5 min. at 800-1000 rpm, resuspending the cells and counting the rosettes formed in a Goryaev chamber.
Antibody-coated rabbit erythrocytes were used for determinations of EA-RFC (i.e., “activated” T-lymphocytes) according to the method of Stadecker, M. J., et al., J. Immunol. 11(6):1834-1837 (1973). Erythrocytes were prepared, incubated with an optimal dilution of anti-rabbit IgG, washed, and prepared as a 1% cell suspension in a manner analogous to those above (E-RFC, supra). EA-RFC assays were performed in a manner analogous to the description above, i.e., E-RFC, supra.
Determinations of EAC-RFC (i.e., B-lymphocytes) were performed according to the method described by Bianco, C., et al., J. Exp. Med. 132(4):702-720 (1970).

[2] = system: E-receptors on thymocytes; assay: Expression of E-receptors on trypsin-treated thymocytes (E-RFC); format: cell-based, guinea pigs; settings: for E-RFC (%): trypsin-treated thymocytes
Method: Thymus cells were isolated from male guinea pigs (180-200 g) under standard conditions of tissue mincing and differential centrifugation in Medium 199. Isolated thymocytes were treated with trypsin to remove cell surface E-receptors capable of binding rabbit erythrocytes (E). The percentage of cells capable forming E-rosettes (E-RFC) was decreased by about two-fold under these conditions.
L-Glu-L-Trp has been reported to restore T-cell receptors and E-RFC following incubation at 37° C. Studies were conducted in which the activity of L-Glu-L-Trp dipeptide were compared in the latter assay.
Thymocytes were prepared from 48 guinea pigs, treated with trypsin, and tested for E-RFC.

[3] = Lymphatic infections (lymphangitis); format: in vivo; settings: 100 μg im, 1 μg/kg intranasally or intralymphatically
[4] = system: Staphylococcus aureus; assay: Survival after Staphylococcus aureus peritonitis, therapeutic treatment 1 hour after challenge; format: in vivo, mice; settings: for Percentage Survivors: ip therapeutic 1 hour after challenge
Method: EXAMPLES 32-34, above, test substance (i.e., L-Glu-L-Trp alone or in combination with antibiotic, or antibiotic alone) was injected sc, ip, po one hour after the bacterial challenge.

[5] = system: E. coli; assay: Survival after acute peritonitis with LD100 dose of E. coli; format: in vivo, mice

L-Glu-L-Trp
Decrease of T-lymphocytes in LN and BM ([1]; 1 mg/kg im, 5 days): 50%
Increase of splenic and thymus T-cells ([1]; 1 mg/kg im, 5 days): 2-9%
E-RFC ([1]; BM): 11.2 ± 2.3* 10^3/mg
EA-RFC ([1]; BM): 25.1 ± 1.9* 10^3/mg
EAC-RFC ([1]; BM): 13.9 ± 2.1 10^3/mg
E-RFC ([1]; LN): 81.4 ± 7.6* 10^3/mg
EA-RFC ([1]; LN): 61.7 ± 8.2 10^3/mg
EAC-RFC ([1]; LN): 173.3 ± 12.7 10^3/mg
E-RFC ([1]; PBL): 1.59 ± 0.78 10^9/L
EA-RFC ([1]; PBL): 0.82 ± 0.09 10^9/L
EAC-RFC ([1]; PBL): 0.79 ± 0.08* 10^9/L
E-RFC ([1]; SPL): 75.9 ± 6.8 10^3/mg
EA-RFC ([1]; SPL): 81.2 ± 7.4* 10^3/mg
EAC-RFC ([1]; SPL): 141.5 ± 22.6 10^3/mg
E-RFC ([1]; TYM): 448.1 ± 51.4 10^3/mg
EA-RFC ([1]; TYM): 542.6 ± 42.3 10^3/mg
EAC-RFC ([1]; TYM): 0 10^3/mg
Increase of complement receptor bearing cells (EAC-RFC) in blood ([1]; guinea pig, in vivo): 2 fold
CD2+ lymphocytes (E-RFC), BM ([1]; treated guinea pigs): 50% ↓ (p < 0.05)
CD2+ lymphocytes (E-RFC), LN ([1]; treated guinea pigs): 32% ↓ (p < 0.05)
CD2+ lymphocytes (E-RFC), Spleen ([1]; treated guinea pigs): ns
CD2+ lymphocytes (E-RFC), Thymus ([1]; treated guinea pigs): ns
Fc-receptor+ lymphocytes (EA-RFC), LN ([1]; treated guinea pigs): ns
Fc-receptor+ lymphocytes (EA-RFC), PBL ([1]; treated guinea pigs): ns
Fc-receptor+ lymphocytes (EA-RFC), Thymus ([1]; treated guinea pigs): ns
Percentage of E-RFC ([2]; 0.01-1 mg/mL): increased the percentage of E-RFC in trypsin-treated thymocyte cultures
E-RFC (%) ([2]; Conc. 0.0001 mg/ml): 30.3 ± 3.1 %
E-RFC (%) ([2]; Conc. 0.01 mg/ml): 36.8 ± 2.4 %
E-RFC (%) ([2]; Conc. 1 mg/ml): 42.8 ± 3.5 %
Clinical outcome [3]: controls the progression of lymphangitis
Percentage Survivors ([4]; 24 hours, Glu-Trp dose 0.01 μg/kg): 16.7%
Percentage Survivors ([4]; 24 hours, Glu-Trp dose 0.1 μg/kg): 5.6*† %
Percentage Survivors ([4]; 24 hours, Glu-Trp dose 1 μg/kg): 27.8† %
Percentage Survivors ([4]; 24 hours, Glu-Trp dose 10 μg/kg (alone or + Ampicillin)): 66.7* %
Percentage Survivors ([4]; 24 hours, Glu-Trp dose 100 μg/kg (alone or + Ampicillin)): 66.7* %
Percentage Survivors ([4]; 48 hours, Glu-Trp dose 0.01 μg/kg): 0%
Percentage Survivors ([4]; 48 hours, Glu-Trp dose 0.1 μg/kg): 0† %
Percentage Survivors ([4]; 48 hours, Glu-Trp dose 1 μg/kg): 5.6† %
Percentage Survivors ([4]; 48 hours, Glu-Trp dose 10 μg/kg (alone or + Ampicillin)): 38.9* %
Percentage Survivors ([4]; 48 hours, Glu-Trp dose 100 μg/kg (alone or + Ampicillin)): 55.6* %
Percentage Survivors ([4]; 72 hours, Glu-Trp dose 0.01 μg/kg): 0%
Percentage Survivors ([4]; 72 hours, Glu-Trp dose 0.1 μg/kg): 0%
Percentage Survivors ([4]; 72 hours, Glu-Trp dose 1 μg/kg): 0† %
Percentage Survivors ([4]; 72 hours, Glu-Trp dose 10 μg/kg (alone or + Ampicillin)): 16.7* %
Percentage Survivors ([4]; 72 hours, Glu-Trp dose 100 μg/kg (alone or + Ampicillin)): 33.3* %
Survival ([4]; ip, 1 hour after challenge): dose-response relationship between the amount of L-Glu-L-Trp administered ip and the survival of animals
Percentage Survivors ([5]; 24 hours after injection, Glu-Trp dose 10 μg/kg (alone or + Ampicillin 1 MED)): 83.3* %
Percentage Survivors ([5]; 24 hours after injection, Glu-Trp dose 100 μg/kg (alone or + Ampicillin 1 MED)): 77.8*† %
Percentage Survivors ([5]; 24 hours after injection, Glu-Trp dose 1000 μg/kg (alone or + Ampicillin 1 MED)): 83.3*† %
Percentage Survivors ([5]; 48 hours after injection, Glu-Trp dose 10 μg/kg (alone or + Ampicillin 1 MED)): 11.1%
Percentage Survivors ([5]; 48 hours after injection, Glu-Trp dose 100 μg/kg (alone or + Ampicillin 1 MED)): 38.9* %
Percentage Survivors ([5]; 48 hours after injection, Glu-Trp dose 1000 μg/kg (alone or + Ampicillin 1 MED)): 44.4* %
Percentage Survivors ([5]; 72 hours after injection, Glu-Trp dose 10 μg/kg (alone or + Ampicillin 1 MED)): 11.1%
Percentage Survivors ([5]; 72 hours after injection, Glu-Trp dose 100 μg/kg (alone or + Ampicillin 1 MED)): 38.9* %
Percentage Survivors ([5]; 72 hours after injection, Glu-Trp dose 1000 μg/kg (alone or + Ampicillin 1 MED)): 44.4* %
